Test results taken from US20160199354A1, “METHODS FOR OLMESARTAN DOSING BY AUC” (Autotelic LLC, priority 2015, published 2016).

Key:
[1] = set-up: species or system Korean healthy males; settings: in vivo
Procedure: Drug exposure as AUC was studied among Korean healthy males aged between 20 and 50 years in two clinical studies: (1) a randomized, open-label, multiple-dose, cross-over study of 36 subjects divided into 6 cohorts and treated over 3 periods (subjects were administered either 1 tablet of 40 mg olmesartan medoxomil, 1 tablet of 20 mg rosuvastatin calcium, or a 1 tablet each of both agents (fixed dosage composition, single dose form) orally every 24 hours for 7 days, with an 8-day washout period separating the individual treatment courses) and (2) a randomized, open-label, single-dose, cross-over study of 58 subjects divided into 2 cohorts and treated over 2 periods (Son H, Roh H, Lee D, Chang H, Kim J, Yun C, et al. Pharmacokinetics of rosuvastatin/olmesartan fixed-dose combination: a single-dose, randomized, open-label, 2-period crossover study in healthy Korean subjects. Clin Ther 2013; 35:915-22) (one tablet of ST-101, also known as olmesartan/rosuvastatin FDC, tablet of 40 mg olmesartan medoxomil/20 mg rosuvastatin calcium was administered once orally as the test drug, or 1 tablet each of 40 mg olmesartan medoxomil and 20 mg rosuvastatin calcium was co-administered once orally as the comparator; eligible subjects were randomly assigned to 2 groups (test arm vs comparator arm) in a 1:1 ratio; each subject received a single dose of the FDC or the comparator orally in a fasted state, with a 7-day washout period between the administrations.
A total of 34 volunteers in study 1 and 54 volunteers in study 2 were evaluated for olmesartan pharmacokinetic (PK) analysis. For PK analyses, blood samples were collected at 0 (pre-dose), 0.5, 2, 2.5, 3, 4, 5, 6, 7, 8, 10, 12, 16, 24, 48 hour after dosing of olmesartan either as FDC or as single agent.
FIG. 1 compares individual values of olmesartan AUC when dosed as either olmesartan single agent (OM) or olmesartan/rosuvastatin (OM/RC) fixed dose composition (FDC). […] The coefficient of variations were 29.95% and 24.42% for olmesartan single agent and OM/RC FDC, respectively. The tabulated summary of the data including Gaussian tests are shown below in Table 1.
FIG. 6 illustrates the linear correlation between the first and second pharmacokinetic determinations (AUC) for olmesartan. The linear regression is described by the following equation: Y=0.9782*X. The p value of significant deviation from 0 is less than 0.0001.

[2] = system: Korean subjects with hypertension associated with dyslipidemia; assay: Phase 3 clinical study, variability of SBP and DBP reduction; assay type: in vivo, human (Korean subjects); settings: once daily up to 8 weeks; olmesartan medoxomil 40 mg
Procedure: Hypertension therapy effectiveness was evaluated by evaluating the variability of systolic blood pressure (SBP) and diastolic blood pressure (DBP) reduction following dosing with olmesartan single agent (OM) or a fixed dosage composition comprising olmesartan and rosuvastatin (OM/RC FDC). […] The study was a multi-site, randomized, double-blind, placebo-controlled, factorial, 4 arm, 8 week Phase 3 clinical study of Korean subjects with hypertension associated with dyslipidemia aged between 20 and 80 years. Following a 4-week therapeutic lifestyle-change period that included a washout period, eligible patients were randomized in a 2:1:1:1 ratio to receive either OM/RC FDC, olmesartan medoxomil 40 mg, rosuvastatin calcium 20 mg, or placebo, once daily, for up to 8 weeks. A total of 183 subjects were randomized (72 subjects in OM/RC FDC, 39 subjects in olmesartan medoxomil 40 mg, 38 subjects in rosuvastatin calcium 20 mg, and 34 subjects in placebo). Among the 183 randomized subjects, 181 subjects took the investigational drug (ST-101/OM/RC FDC), 162 subjects completed the study, and 21 of […] subjects were discontinued from the study. The SBP and DBP reduction was highly variable. FIG. 2 compares the variability of systolic blood pressure (SBP) reduction after dosing with olmesartan single agent (olmesartan) or olmesartan/rosuvastatin fixed dose combination (OM/RC FDC, ST-101). […]

[3] = system: patients with hypertension; assay: Dose response of blood pressure reduction, analysis of 21 published clinical studies; assay type: in vivo, human; settings: olmesartan medoxomil 5 to 80 mg monotherapy, 21 clinical studies
Procedure: PubMed database was searched to identify relevant scientific and review articles from June 2001 to June 2015 using the search terms olmesartan efficacy, response, effect/clinical trial. Reference lists of included articles were reviewed to locate additional references of interest. PD studies with olmesartan medoxomil dose range from 5 to 80 mg monotherapy were selected. PD response and demographic data from a total of 10,770 patients with hypertension in 21 clinical studies were included in the analysis (Oparil S, Williams D, Chrysant S G, Marbury T C, Neutel J. (2001). Comparative efficacy of olmesartan, losartan, valsartan, and irbesartan in the control of essential hypertension. J Clin Hypertens (Greenwich) 2001; 3(5):283-318; Püchler K, Laeis P, Stumpe K O. Blood pressure response, but not adverse event incidence, correlates with dose of angiotensin II antagonist. J Hypertens Suppl 2001 June; 19(1):S41-8; Neutel J M, Elliott W J, Izzo J L, Chen C L, Masonson H N. Antihypertensive efficacy of olmesartan medoxomil, a new angiotensin II receptor antagonist, as assessed by ambulatory blood pressure measurements. […] J Hum Hypertens 2002; 16(Suppl 2):S24-8; Brunner H R, Stumpe K O, Januszewicz A. Antihypertensive efficacy of olmesartan medoxomil and candesartan cilexetil assessed by 24-hour ambulatory blood pressure monitoring in patients with essential hypertension. […]

[4] = set-up: species or system healthy subjects (Asian and non-Asian); settings: in vivo
Excerpt: PubMed database was searched to identify relevant scientific and review articles from May 2001 to June 2015 using the search term olmesartan PK. Reference lists of included articles were reviewed to locate additional references of interest. PK studies with single dose AUC of olmesartan medoxomil in healthy subjects were selected. Olmesartan medoxomil AUC from co-administration of olmesartan medoxomil with other drugs or FDC containing olmesartan medoxomil were also included if there was no known drug-drug interaction (DDI). The pharmacokinetic datasets for olmesartan were obtained from published clinical studies across Asian and non-Asian subjects with a dose range from 10 to 160 mg. More than 80% of the studies reported AUC in arithmetic mean. […] PK and demographic data from a total of 895 healthy subjects from 13 clinical studies were included in the final analysis Schwocho L R and Masonson H N. Pharmacokinetics of CS866, a new angiotensin II receptor block, in healthy subjects. J Clin Pharmacol 2001; 41:515-27; von Bergmann K, Laeis P, Pilchler K, Sudhop T, Schwocho L R, Gonzalez L. Olmesartan medoxomil: influence of age, renal and hepatic function on the PK of olmesartan medoxomil. […]

## CCCc1nc(C(C)(C)O)c(C(=O)OCc2oc(=O)oc2C)n1Cc1ccc(-c2ccccc2-c2nnn[nH]2)cc1 [OM Single Agent, olmesartan medoxomil]
[1]
  slope of linear regression between first and second AUC determinations (Y=slope*X): 0.9782
[1]; po, 40 mg
  coefficient of variation of olmesartan AUC: 29.95%
  olmesartan AUC, 25% Percentile: 6317
  olmesartan AUC, 75% Percentile: 8916
  olmesartan AUC, Maximum: 17026
  olmesartan AUC, Mean: 7908
  olmesartan AUC, Median: 7450 ng·h/mL
  olmesartan AUC, Minimum: 3899
[2]
  coefficient of variation for DBP reduction: 79.25%
  coefficient of variation for SBP reduction: 78.24%
[3]
  relationship between DBP reduction and dose (regression analysis): very shallow insignificant relationship
[3]; p=0.04
  correlation between SBP reduction and dose (regression analysis): only weak correlation
[4]
  AUC among Asian subjects versus non-Asian subjects: comparable to AUC in non-Asian subjects at the same dose level
  dependence of AUC on dose: linear dose-dependent increase in AUC from 10 to 160 mg
